Measurements: patent US9175007B2, “IRAK inhibitors and uses thereof” (Nimbus Iris, Inc., priority 2013, dated 2015)
Where a name gives a salt, the structure may show the parent alone.

Key:
IRAK4 = target: T1, IRAK4 (Homo sapiens, UniProt Q9NWZ3); assay: IRAK-4 activity inhibition assay (Caliper); assay type: biochemical; details: 3.5 nM IRAK4, 37 μM ATP, 1.5 μM Peptide 8
T1 construct: purchased CARNA Bioscience 09-145
T1 sequence (Q9NWZ3 1-460): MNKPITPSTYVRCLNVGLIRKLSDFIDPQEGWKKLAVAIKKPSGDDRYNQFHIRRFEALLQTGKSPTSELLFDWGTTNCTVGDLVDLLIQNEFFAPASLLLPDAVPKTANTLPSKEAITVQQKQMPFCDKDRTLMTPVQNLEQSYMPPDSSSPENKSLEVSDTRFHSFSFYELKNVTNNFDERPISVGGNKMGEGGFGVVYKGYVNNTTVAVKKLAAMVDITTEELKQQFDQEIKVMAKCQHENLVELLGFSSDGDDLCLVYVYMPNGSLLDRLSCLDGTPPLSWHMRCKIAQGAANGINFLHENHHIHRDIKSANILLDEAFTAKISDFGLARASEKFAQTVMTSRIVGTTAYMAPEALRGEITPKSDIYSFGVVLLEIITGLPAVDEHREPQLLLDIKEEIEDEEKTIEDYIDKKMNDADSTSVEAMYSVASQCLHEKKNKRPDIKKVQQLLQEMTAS
Method: A 1× kinase base buffer was prepared from 50 mM HEPES, pH 7.5 and 0.0015% Brij-35. A stop buffer was prepared from 100 mM HEPES, pH 7.5, 0.015% Brij-35, 0.2% Coating Reagent #3, and 50 mM EDTA.
Test compound was diluted to 50× of the final desired highest inhibitor concentration in reaction by 100% DMSO. 100 ul of this compound dilution was transferred to a well in a 96-well plate.
Test compound was serially diluted by transferring 30 μl to 60 μl of 100% DMSO in the next well and so forth for a total of 10 concentrations. 100 μl of 100% DMSO was added to two empty wells for no compound control and no enzyme control in the same 96-well plate.
A new 96-well plate was marked as intermediate plate. 5 μl of compound serial dilution was transferred from source plate to the corresponding wells of the intermediate plate. 45 μl of 1× kinase base buffer (KB buffer) was added to each well of the intermediate plate. The intermediate plate was placed for 10 min on a shaker.
5 μl of each well was transferred from the 96-well intermediate plate to a 384-well plate in duplicates. For example, A1 of the 96-well plate is transferred to A1 and A2 of the 384-well plate. A2 of the 96-well plate is transferred to A3 and A4 of the 384-well plate, and so on.
IRAK4 and DTT in 1× kinase base buffer was added. The 2.5× enzyme mix contained 8.8 nM IRAK4 and 5 mM DTT.
Peptide 8, ATP, MgCl2 and MnCl2 were added in the 1× kinase base buffer. The 2.5× peptide mix contained 3.75 μM peptide 8, 92.5 μM ATP, 12.5 mM MgCl2 and 2.5 mM MnCl2.
Assay plate already contained 5 μl of compound in 10% DMSO. Added 10 μl of 2.5× enzyme solution to each well of the 384-well assay plate, except no enzyme control wells. The final concentration of IRAK4 in reaction was 3.5 nM. Added 10 μl of 1× kinase base buffer to no enzyme control wells in the assay plate. Incubated at room temperature for 10 min.
Added 10 μl of 2.5× peptide solution to each well of the 384-well assay plate. The final concentration of Peptide 8 and ATP was 1.5 μM and 37 μM, respectively. Incubated at 28° C. for 40 minutes. Added 25 μl of stop buffer to stop reaction. Collected data on Caliper.
Copied conversion % data from Caliper program. Converted conversion % values to percent inhibition values. Percent inhibition=(max-conversion %)/(max-min)*100, where “max” means the conversion % of DMSO control and “min” means the conversion % of no enzyme control.

[1] = test system: TNFα production in THP-1 cells; assay: LPS induced TNFα production assay in THP-1 cells; assay type: cell-based; details: Homo sapiens, 300 ng/mL LPS
Method: (§1) Provided compounds were also assayed in an LPS (Lipopolysacharide) or R848 (TLR-7 agonist) induced cytokine (TNFα and IL8) production assay in THP-1 cells, human peripheral blood mononuclear cells (hPBMC), and whole blood. The exemplary protocol for this assay in THP-1 cells was as follows below.
(§2) THP-1 cells from ATCC (TIB-202) were cultured in RPMI Medium 1640 (Invitrogen, Cat No. A10491-01), 10% fetal bovine serum (Invitrogen, Cat No. 10099141, Lot No. 8172882) containing 100 U/mL Penicillin, 100 μg/mL streptomycin (Invitrogen, Cat No. 15140-122), and 50 uM 2-Mercaptoethanol (Invitrogen, Cat No. 21985023). LPS-EK ultra pure (Invivogen, Cat No. tlrl-peklps) was used to induce IL8 and TNFα production, that was detected in the cell culture supernatant by IL8 HTRF kit (Cisbio, Cat No. 62IL8PEB) and TNFα HTRF kit (Cisbio, Cat No. 62TNFPEB), as per manufacturer instructions. Cells were cultured in 96 well assay plates at 100,000 cells per well, and compounds diluted in final 0.3% DMSO were pre-incubated with cells for 1 hour prior to stimulation with 300 ng/mL LPS. Cytokine production in cell supernatant was measured at 5 hours for TNFα and IL8 production, and for 16 hours for IL8 production and assessment of cell viability.

[2] = test system: IL8 production in THP-1 cells; assay: LPS induced IL8 production assay in THP-1 cells; assay type: cell-based; details: Homo sapiens, 300 ng/mL LPS
Method: as §1, §2

[3] = test system: TNF-α production in whole blood; assay: In vitro R848-induced TNF-α production in whole blood; assay type: cell-based; details: Homo sapiens, R848 1 uM

Cn1cc(Nc2nc(O[C@H]3CC[C@H](N(C)C)CC3)c3c4c(sc3n2)CCC4)cn1 [Compound I-14, 12-[[4-(dimethylamino)cyclohexyl]oxy]-N-(1-methyl-1H-pyrazol-4-yl)-7-thia-9,11-diazatricyclo[6.4.0.0[2,6]]dodeca-1(8),2(6),9,11-tetraen-10-amine]
IC50 (IRAK4): ≤ 5000 nM
IC50 [1]: ≤ 500 nM
IC50 [2]: ≤ 500 nM

CN1CCN(c2ccc(Nc3nc(O[C@H]4CC[C@H](N(C)C)CC4)c4c5c(sc4n3)CCC5CC(N)=O)cc2)CC1 (stereo partly drawn) [Compound I-19, 2-(4-(((1r,4r)-4-(dimethylamino)cyclohexyl)oxy)-2-((4-(4-methylpiperazin-1-yl)phenyl)amino)-6,7-dihydro-5H-cyclopenta[4,5]thieno[2,3-d]pyrimidin-5-yl)acetamide]
IC50 (IRAK4): ≤ 5000 nM
IC50 [2]: ≥ 5000 nM

Cn1cc(Nc2nc(O[C@H]3CC[C@H](N(C)C)CC3)c3c4c(sc3n2)CC[C@@H]4CC(N)=O)cn1 [Compound I-22, 2-[(3R)-12-[[4-(dimethylamino)cyclohexyl]oxy]-10-[(1-methyl-1H-pyrazol-4-yl)amino]-7-thia-9,11-diazatricyclo[6.4.0.0[2,6]]dodeca-1(8),2(6),9,11-tetraen-3-yl]acetamide]
IC50 (IRAK4): ≤ 5000 nM
IC50 [3]: ≥ 1000 nM

CN1CCN(c2ccc(Nc3nc(O[C@H]4CC[C@H](N(C)C)CC4)c4c5c(sc4n3)CC[C@@H]5CC(N)=O)cc2)CC1 [Compound I-23]
IC50 (IRAK4): ≤ 5000 nM
IC50 [1]: 1000 to 5000 nM
IC50 [2]: ≥ 5000 nM

CN(C)[C@H]1CC[C@H](Oc2nc(Nc3ccccc3)nc3sc4c(c23)[C@@H](CC(N)=O)CC4)CC1 [Compound I-24, 2-[(3R)-10-(phenylamino)-12-[[(1r,4r)-4-(dimethylamino)cyclohexyl]oxy]-7-thia-9,11-diazatricyclo[6.4.0.0[2,6]]dodeca-1(8),2(6),9,11-tetraen-3-yl]acetamide]
IC50 (IRAK4): ≤ 5000 nM
IC50 [1]: ≤ 500 nM
IC50 [2]: ≤ 500 nM

Cn1cc(Nc2nc(O[C@H]3CC[C@H](N4CCOCC4)CC3)c3c4c(sc3n2)CC[C@@H]4CC(N)=O)cn1 [Compound I-25]
IC50 (IRAK4): ≤ 5000 nM
IC50 [3]: ≥ 1000 nM

CN1CCN(c2ccc(Nc3nc(N[C@H]4CC[C@H](N(C)C)CC4)c4c5c(sc4n3)CCC5)cc2)CC1 [Compound I-69, 12-N-[4-(dimethylamino)cyclohexyl]-10-N-[4-(4-methylpiperazin-1-yl)phenyl]-7-thia-9,11-diazatricyclo[6.4.0.0[2,6]]dodeca-1(8),2(6),9,11-tetraene-10,12-diamine]
IC50 (IRAK4): ≤ 5000 nM

c1cc(C2CCNCC2)ccc1Nc1nc(N[C@H]2CC[C@H](N3CCOCC3)CC2)c2c3c(sc2n1)CCC3 [Compound I-70, 12-N-[4-(morpholin-4-yl)cyclohexyl]-10-N-[4-(piperidin-4-yl)phenyl]-7-thia-9,11-diazatricyclo[6.4.0.0[2,6]]dodeca-1(8),2(6),9,11-tetraene-10,12-diamine hydrochloride]
IC50 (IRAK4): ≤ 5000 nM

CN(C)[C@H]1CC[C@H](Nc2nc(Nc3ccc(C4CCNCC4)cc3)nc3sc4c(c23)CCC4)CC1 [Compound I-71, 12-N-[4-(dimethylamino)cyclohexyl]-10-N-[4-(piperidin-4-yl)phenyl]-7-thia-9,11-diazatricyclo[6.4.0.0[2,6]]dodeca-1(8),2(6),9,11-tetraene-10,12-diamine hydrochloride]
IC50 (IRAK4): ≤ 5000 nM

Cn1cc(Nc2nc(N[C@H]3CC[C@H](N(C)C)CC3)c3c4c(sc3n2)CCC4)cn1 [Compound I-72, 12-N-[4-(dimethylamino)cyclohexyl]-10-N-(1-methyl-1H-pyrazol-4-yl)-7-thia-9,11-diazatricyclo[6.4.0.0[2,6]]dodeca-1(8),2(6),9,11-tetraene-10,12-diamine]
IC50 (IRAK4): ≤ 5000 nM
IC50 [1]: ≤ 500 nM
IC50 [2]: ≤ 500 nM

Cn1cc(Nc2nc(O[C@H]3CC[C@H](N4CCOCC4)CC3)c3c4c(sc3n2)CCC4)cn1 [Compound I-73, N-(1-methyl-1H-pyrazol-4-yl)-12-[[4-(morpholin-4-yl)cyclohexyl]oxy]-7-thia-9,11-diazatricyclo[6.4.0.0[2,6]]dodeca-1(8),2(6),9,11-tetraen-10-amine]
IC50 (IRAK4): ≤ 5000 nM
IC50 [1]: 500 to 1000 nM
IC50 [2]: ≤ 500 nM

Cn1cc(Nc2nc(N[C@H]3CC[C@H](N4CCOCC4)CC3)c3c4c(sc3n2)CCC4)cn1 [Compound I-74, 10-N-(1-methyl-1H-pyrazol-4-yl)-12-N-[4-(morpholin-4-yl)cyclohexyl]-7-thia-9,11-diazatricyclo[6.4.0.0[2,6]]dodeca-1(8),2(6),9,11-tetraene-10,12-diamine]
IC50 (IRAK4): ≤ 5000 nM
IC50 [1]: ≤ 500 nM
IC50 [2]: ≤ 500 nM

CN(C)[C@H]1CC[C@H](Nc2nc(Nc3ccccc3)nc3sc4c(c23)CCC4)CC1 [Compound I-75, 12-N-[4-(dimethylamino)cyclohexyl]-10-N-phenyl-7-thia-9,11-diazatricyclo[6.4.0.0[2,6]]dodeca-1(8),2(6),9,11-tetraene-10,12-diamine]
IC50 (IRAK4): ≤ 5000 nM
IC50 [1]: 1000 to 5000 nM
IC50 [2]: 1000 to 5000 nM

c1nscc1Nc1nc(N[C@H]2CC[C@H](N3CCOCC3)CC2)c2c3c(sc2n1)CCC3 [Compound I-76]
IC50 (IRAK4): ≤ 5000 nM
IC50 [1]: ≤ 500 nM
IC50 [2]: ≤ 500 nM

c1nocc1Nc1nc(N[C@H]2CC[C@H](N3CCOCC3)CC2)c2c3c(sc2n1)CCC3 [Compound I-77]
IC50 (IRAK4): ≤ 5000 nM
IC50 [1]: ≤ 500 nM
IC50 [2]: ≤ 500 nM
